According to patent publication US20200333357A1, “NOVEL TFEB PATHWAY AGONISTS FOR METABOLIC DISEASES AND AGEING” (The Board of Regents of the University of Texas System, priority 2017, published 2020):
Counter-ions that a name gives are not always drawn.

Tests used:
HepG2 cells = assay: Oleic acid-induced lipid accumulation (oil red O staining); conditions: 1 mM oleic acid; 370 nM DG, 3.3 μM AD and IKA
mTORC1 = assay: TSC2 dependence of mTORC1 inhibition and TFEB activation in p53-/- and p53-/-, TSC2-/- MEFs; assay type: cell-based, mouse; conditions: p53-/- vs p53-/-
HeLa cells [1] = assay: Fura-2 Ca2+ imaging; assay type: cell-based, human; conditions: exposure at ~TFEB EC90
Protocol: HeLa cells treated with compounds or DMSO for 4 hr were loaded with Fura-2-AM (3 μM) in cell culture medium for 60 min at 37° C. Cells were washed twice then incubated in fresh medium for 30 min to allow complete de-esterification of intracellular AM esters. Imaging was performed at 37° C. with 5% CO2 on an epifluorescent microscope (Deltavision, Applied Precision) equipped with a digital monochrome Coolsnap HQ2 camera (Roper Scientific, Tucson, Ariz.). Fluorescence images were collected using SoftWoRx v3.4.5 (Universal Imaging, Downingtown, Pa.). Data were recorded at excitation/emission wavelengths of 340/510 nm (Fura-340 filter) and 387/510 nm (Fura-380 filter). The single band pass excitation filter for Fura-340 and Fura-380 is 26 nm and 11 nm, respectively, and the band pass of emission filters for Fura-340 and Fura-380 is 84 nm. Intracellular calibration of Fura-2 was accomplished by manipulating the Ca^2+ levels inside cells using the ionphore ionomycin (20 μM, Sigma-Aldrich) and by incubating cells in buffers with various Ca^2+ concentrations (calcium calibration buffer kit—Invitrogen). Intracellular fluorescence ratios were determined using ImageJ software. Images were background-corrected by subtracting the mean pixel values of a cell-free region near the region of interest. Fluorescent intensity ratio R=F340/F380, and Ca^2+ concentration can be calculated from Equation 3, where Kd can be obtained from intracellular calibration:
[Ca^2+]Kd×F380,min/F380,max×(R−Rmin)/(Rmax−R) (3)

HeLa cells [2] = assay: Cellular ROS level (CellROX Green); assay type: cell-based, human; conditions: 4 hrs
Description: SFIGS. 5A-I. Small-molecule activators of TFEB engage different sources of Ca. (SFIG. 5A) HeLa cells were pretreated with or without N-acetyl-cysteine (NAC) for 1 hr and then treated with tert-butyl hydroperoxide (TBHP) or AD for 4 hrs. TBHP and NAC were used as positive and negative controls. A ROS-sensitive DNA dye CellROX Green was used to detect cellular ROS levels after these treatments. Endogenous TFEB localization was also shown. (SFIG. 5B) Quantification of the fluorescent intensity of CellROX Green in cells treated as in a was done by a plate reader. (SFIG. 5C) Quantification of endogenous TFEB nuclear translocation in SFIG. 5A. (SFIG. 5D) Cells were pretreated with or without 25 μM IP3R inhibitor Xestosporine C (Xesto) for 1 hr and then treated with DG, AD and IKA for indicated time. Quantification of TFEB translocation was shown in SFIG. 5E-G (graphs represent mean±s.d. **p<0.01, ***p<0.001, ****p<0.0001). (SFIG. 5H-I) RNA-interference were used to knock down inositol […] receptor type 1 (IP3R1) in GFP-TFEB cells before they were treated with DG, AD and IKA. siLONRF1 was used as a negative control. TFEB translocation percentage was quantified from images as shown in SFIG. 5I (mean±s.d. for n=3 independent experiments, ****p<0.0001). Scale bar, 20 μm.

HLH-30 = assay: HLH-30::GFP nuclear localization assay; assay type: in vivo, C. elegans; conditions: dal-1(dt2300); sqIs19 worms, 5 μM IKA
Protocol: Adult TX1941 dal-1(dt2300); sqIs19 [hlh-30p::hlh-30::GFP rol-6(+)] worms were placed on NGM plates with either a test chemical or 5% DMSO. GFP was scored at various intervals on live worms without mounting using a Zeiss Axio Zoom. V16 fluorescence dissecting microscope equipped with Axiocam 503. No difference was observed between 2 hour and overnight treatment.

C. elegans = C. elegans lifespan analysis; assay type: in vivo; conditions: for Lifespan increase (%): vs DMSO
Protocol: The C. elegans mutant strain, fem-1(hc17ts) IV; dal-1(dt2300), obtained from the Caenorhabditis Genetics Center at the University of Minnesota, was cultured on Nematode Growth Medium (NGM) plates seeded with the E. coli strain OP50 and consistently maintained at 15° C. For lifespan assays, a total of 12 age-synchronized nematode adults were transferred to eight replicate NGM plates and grown at 25° C. to ensure sterility. Age synchronization was achieved through standard hypochlorite treatments. Eggs were placed on NGM plates supplemented with Streptomycin (100 μg ml-1) and seeded with the E. coli strain, OP50. For compound testing, 200 μl of 10 μM Ikarugamycin in 5% DMSO was spotted directly onto OP50 seeded NGM plates. Control plates were prepared by spotting 200 μl of 5% DMSO directly onto OP50 seeded NGM plates. For the first 10 days of adulthood, C. elegans were scored once a day as dead or alive by touch stimulation with a platinum wire. After day 10, animals were scored every other day. Nematodes which crawling off the agar plates were censored from subsequent lifespan analysis. Kaplan-Meier statistical analysis was performed using Prism 7 software. Lifespan experiments were done on two separate occasions.

[3] = system: mice under fed and fast conditions; assay: Short-term starvation and chloroquine-induced acute hepatic lipid accumulation in mice; assay type: in vivo, mouse
Protocol: SFIGS. […] (SFIG. 6A) The body weight (left y-axis, solid symbols) and food intake (right y-axis, open symbols) measured in normal-diet-fed mice treated with vehicle or 2.5 mg/kg DG. (SFIG. 6B) Drug release curves of AD (upper panel) and IKA (lower panel) in PBS. […] (SFIG. 6F) Cells were treated with various doses DG, AD and IKA for 4 hours, and cell viability was measured immediately or after 72 hours. Dose response curves were simulated using ImageJ. (SFIG. 6G) H&E staining of heart, spleen and kidney sections from mice treated with DG, AD, IKA and their corresponding controls. Scale bar, 100 μm. (SFIG. 6H) H&E staining of liver and heart sections as well as ORO and p62/SQSTM1 IHC staining of liver sections from mice under fed and fast conditions with orally injected DG and intraperitoneally injected CQ, individually and jointly, or their corresponding control (Saline). Scale bar, 50 μm. (SFIG. 6I) The body weight of mice after the treatment described in SFIG. 6H. (SFIGS. 6J-L) Total serum levels of triglyceride, cholesterol and glucose of mice after the treatment described in SFIG. 6G.

[4] = Body weight of normal-diet-fed (lean) mice; assay type: in vivo, mouse; conditions: 2.5 mg/kg DG

Structure (SMILES)	oleic acid-induced lipid accumulation in human hepatocytes (HepG2 cells)	dependence of mTORC1 inhibition / TFEB activation on TSC2 (mTORC1)	cytosolic calcium (Fura-2) (HeLa cells [1])	ROS production (HeLa cells [2])	nuclear accumulation of GFP-tagged HLH30 within intestinal cells in adults (HLH-30)	lifespan of fem-1(−);dal-1(−) animals (C. elegans; 5 μM IKA vs DMSO)	75th % (C. elegans; 1st experiment)	Mean Lifespan ± s.e.m (C. elegans; 1st experiment)	Median lifespan (C. elegans; 1st experiment)	Lifespan increase (%) (C. elegans; 1st experiment)	Mean Lifespan ± s.e.m (C. elegans; 2nd experiment)	Median lifespan (C. elegans; 2nd experiment)	Lifespan increase (%) (C. elegans; 2nd experiment)	p62/SQSTM1 accumulation in liver ([3]; fast, CQ, DG oral)	fast-induced hepatic lipid accumulation ([3]; overnight fast, CQ intraperitoneal, DG oral co-administration)	body weight of lean mice [4]
CCCCC(CC)CNC(=N)NC(=N)NCCCCCCNC(=N)NC(=N)NCC(CC)CCCC (centres unmarked) [AD, alexidine dihydrochloride]	significantly ameliorated	TSC2-dependent	induce accumulation of cytosolic calcium	comparable ROS production	–	–	–	–	–	–	–	–	–	–	–	–
CC[C@H]1[C@@H]2C=C[C@@H]3[C@H]4C/C=C\C(=O)NCCC[C@@H]5NC(=O)/C(=C(O)/C=C/[C@@H]4C[C@@H]3[C@H]2C[C@H]1C)C5=O [IKA, ikarugamycin]	–	TSC2-dependent	induce accumulation of cytosolic calcium	–	induce nuclear accumulation	significantly extended	16 days	21.8 ± 0.6 days	22 days	22.2%	23.0 ± 0.5 days	24 days	22.3%	–	–	–
C[C@H]1O[C@@H](O[C@H]2[C@@H](O)C[C@H](O[C@H]3[C@@H](O)C[C@H](O[C@H]4CC[C@@]5(C)[C@H](CC[C@@H]6[C@@H]5C[C@@H](O)[C@]5(C)[C@@H](C7=CC(=O)OC7)CC[C@]65O)C4)O[C@@H]3C)O[C@@H]2C)C[C@H](O)[C@@H]1O [DG, digoxin, reference compound]	significantly ameliorated	–	induce accumulation of cytosolic calcium	–	–	–	–	–	–	–	–	–	–	reduction	improved	did not alter
